Data reported in patent EP0212822A1, “A composition containing a plant growth regulator and an alkanol and a method of using the same” (ICI AMERICAS INC., priority 1985, dated 1987).

Columns and labels:
Willow Oak = assay: Trunk injection, holes at 4 inch intervals, Retardation and Uniformity Ratings; assay type: in vivo, Quercus phellos (Willow Oak); set-up: key to Uniformity Rating (U): 0 = no effect from PGR; 1 = poor; 2 = fair; 3 = acceptable; 4 = very good; 5 = excellent; settings: 38 ml/hole
Description: (§1) The examples which follow exemplify the improvements obtained by this invention. However, these examples are not intended to limit the scope of the invention. In Examples 1-41, the subject trees were injected at a distance approximately one foot from the soil line by drilling 7/32 inch diameter holes to a 2 inch depth at a 30-45° angle tangential to the trunk with a pressure injector (150 psi) purchased from the Asplundh Tree Expert Co., Company No. 346-3502. The results are expressed in terms of Retardation and Uniformity Ratings. The Retardation rating scale is as follows: • 0 = no retardataion • 1 = 1-20% retardation • 2 = 21-40% retardation • 3 = 41-60% retardation • 4 = 61-80% retardation • 5 = 81-100% retardation
(§2) The Uniformity Rating is a measure of the consistency of response to the treatment between different branches of the tree. The Uniformity scale employed is as follows: • 0 = no effect from PGR • 1 = poor • 2 = fair • 3 = acceptable • 4 = very good • 5 = excellent
10 (0.034 moles), 20 (0.068 moles) and 40 grams (0.136 moles) of (2RS, 3RS)-1-(4-chlorophenyl)-4,4-dimethyl-2-l,2,4-triazol-l-yl)pentan-3-ol (PGR) were dissolved in 1,1 and 1 liter, respectively, of methanol at room temperature and was stirred until the solution was clear, approximately 20 to 60 minutes. In these examples, the injection holes were placed at approximate 4 inch intervals.

Water Oak = assay: Trunk injection, holes at 8 inch intervals, Retardation and Uniformity Ratings; assay type: in vivo, Quercus nigra (Water Oak); set-up: key to Uniformity Rating (U): 0 = no effect from PGR; 1 = poor; 2 = fair; 3 = acceptable; 4 = very good; 5 = excellent; key to Retardation Rating (R): 0 = no retardataion; 1 = 1-20% retardation; 2 = 21-40% retardation; 3 = 41-60% retardation; 4 = 61-80% retardation; 5 = 81-100% retardation; settings: 75 ml/hole
Description: as §1, §2
10 (0.034 moles), 20 (0.068 moles) and 40 grams (0.136 moles) of (2RS, 3RS)-1-(4-chlorophenyl)-4,4-dimethyl-2-1,2,4-triazol-1-yl)pentan-3-ol (PGR) was dissolved in 1,1 and 1 liter, respectively, of methanol at room temperature and was stirred until the solution was clear, approximately 20 to 60 minutes. In these examples, the injection holes were placed at approximate 8 inch intervals.

[1] = Absorption kinetics: binding of 14C-labelled compound to sawdust; assay type: physicochemical, Betula pendula-Roth (Birch); settings: for µg in solution: 2 gm sawdust, 20 ml water, 10 mg/l 14C (II)
Description: This example illustrates the binding (absorption) properties of the PGR of this invention to wood of the-conducting tissue of Betula pendula-Roth (Birch). The compounds of this invention preferably show partial and reversible binding which enhances the slow release effect by initial precipitation in the trunk. Sawdust samples were obtained from the outer wood of freshly cut, debarked logs. 2 gm samples of sawdust were shaken with 20 ml water containing ^14C triazole-labelled (II) at a concentration of 10 mg 1^-1. At intervals, the aqueous phase was subsampled, and the concentration of (II) determined by scintillation counting. A decrease in concentration reflects binding to the wood, expressed as kd (ratio of chemical bound to wood:chemical in solution).

[2] = week 24, 20 g PGR in 1 liter methanol
[3] = week 24, 40 g PGR in 1 liter methanol
[4] = week 56, 20 g PGR in 1 liter methanol
[5] = week 56, 40 g PGR in 1 liter methanol
[6] = week 24, 10 g PGR in 1 liter methanol, listed as 7, 10 injection holes, 750 ml per tree
[7] = week 24, 10 g PGR in 1 liter methanol, listed as 8, 10 injection holes, 750 ml per tree
[8] = week 24, 10 g PGR in 1 liter methanol, listed as 9, 6 injection holes, 450 ml per tree
[9] = week 24, 10 g PGR in 1 liter methanol, listed as 10, 6 injection holes, 450 ml per tree
[10] = week 24, 20 g PGR in 1 liter methanol, listed as 11
[11] = week 24, 20 g PGR in 1 liter methanol, listed as 12
[12] = week 24, 20 g PGR in 1 liter methanol, listed as 13
[13] = week 24, 40 g PGR in 1 liter methanol, listed as 15, 7 injection holes, 525 ml per tree
[14] = week 24, 40 g PGR in 1 liter methanol, listed as 16, 10 injection holes, 750 ml per tree
[15] = week 24, 40 g PGR in 1 liter methanol, listed as 17, 6 injection holes, 450 ml per tree
[16] = week 56, 10 g PGR in 1 liter methanol, listed as 7, 10 injection holes, 750 ml per tree
[17] = week 56, 10 g PGR in 1 liter methanol, listed as 8, 10 injection holes, 750 ml per tree
[18] = week 56, 10 g PGR in 1 liter methanol, listed as 9, 6 injection holes, 450 ml per tree
[19] = week 56, 10 g PGR in 1 liter methanol, listed as 10, 6 injection holes, 450 ml per tree
[20] = week 56, 20 g PGR in 1 liter methanol, listed as 11
[21] = week 56, 20 g PGR in 1 liter methanol, listed as 12
[22] = week 56, 20 g PGR in 1 liter methanol, listed as 13
[23] = week 56, 40 g PGR in 1 liter methanol, listed as 15, 7 injection holes, 525 ml per tree
[24] = week 56, 40 g PGR in 1 liter methanol, listed as 16, 10 injection holes, 750 ml per tree
[25] = week 56, 40 g PGR in 1 liter methanol, listed as 17, 6 injection holes, 450 ml per tree

CC(C)(C)[C@@H](O)[C@@H](Cc1ccc(Cl)cc1)n1cncn1 (racemic) [Formula (II), (2RS,3RS)-1-(4-chlorophenyl-4,4-dimethyl-2-1,2,4-triazol-1-yl)pentan-3-ol]
Retardation Rating (R) (Willow Oak; [2]): 4 (4 = 61-80% retardation) | Uniformity Rating (U) (Willow Oak; [2]): 3 | Retardation Rating (R) (Willow Oak; [3]): 4 (4 = 61-80% retardation) | Uniformity Rating (U) (Willow Oak; [3]): 4 | Retardation Rating (R) (Willow Oak; [4]): 5 (5 = 81-100% retardation) | Uniformity Rating (U) (Willow Oak; [4]): 5 | Retardation Rating (R) (Willow Oak; [5]): 4 (4 = 61-80% retardation) | Uniformity Rating (U) (Willow Oak; [5]): 4 | Retardation Rating (R) (Water Oak; [6]): 2 (2 = 21-40% retardation) | Uniformity Rating (U) (Water Oak; [6]): 3 | Retardation Rating (R) (Water Oak; [7]): 3 (3 = 41-60% retardation) | Uniformity Rating (U) (Water Oak; [7]): 3 | Retardation Rating (R) (Water Oak; [8]): 3 (3 = 41-60% retardation) | Uniformity Rating (U) (Water Oak; [8]): 3 | Retardation Rating (R) (Water Oak; [9]): 5 (5 = 81-100% retardation) | Uniformity Rating (U) (Water Oak; [9]): 5 | Retardation Rating (R) (Water Oak; [10]): 2 (2 = 21-40% retardation) | Uniformity Rating (U) (Water Oak; [10]): 3 | Retardation Rating (R) (Water Oak; [11]): 5 (5 = 81-100% retardation) | Uniformity Rating (U) (Water Oak; [11]): 5 | Retardation Rating (R) (Water Oak; [12]): 4 (4 = 61-80% retardation) | Uniformity Rating (U) (Water Oak; [12]): 4 | Retardation Rating (R) (Water Oak; [13]): 1 (1 = 1-20% retardation) | Uniformity Rating (U) (Water Oak; [13]): 1 | Retardation Rating (R) (Water Oak; [14]): 0 | Uniformity Rating (U) (Water Oak; [14]): 0 | Retardation Rating (R) (Water Oak; [15]): 3 (3 = 41-60% retardation) | Uniformity Rating (U) (Water Oak; [15]): 3 | Retardation Rating (R) (Water Oak; [16]): 3 (3 = 41-60% retardation) | Uniformity Rating (U) (Water Oak; [16]): 3 | Retardation Rating (R) (Water Oak; [17]): 3 (3 = 41-60% retardation) | Uniformity Rating (U) (Water Oak; [17]): 3 | Retardation Rating (R) (Water Oak; [18]): 5 (5 = 81-100% retardation) | Uniformity Rating (U) (Water Oak; [18]): 4 | Retardation Rating (R) (Water Oak; [19]): 5 (5 = 81-100% retardation) | Uniformity Rating (U) (Water Oak; [19]): 5 | Retardation Rating (R) (Water Oak; [20]): 4 (4 = 61-80% retardation) | Uniformity Rating (U) (Water Oak; [20]): 5 | Retardation Rating (R) (Water Oak; [21]): 5 (5 = 81-100% retardation) | Uniformity Rating (U) (Water Oak; [21]): 4 | Retardation Rating (R) (Water Oak; [22]): 4 (4 = 61-80% retardation) | Uniformity Rating (U) (Water Oak; [22]): 4 | Retardation Rating (R) (Water Oak; [23]): 4 (4 = 61-80% retardation) | Uniformity Rating (U) (Water Oak; [23]): 4 | Retardation Rating (R) (Water Oak; [24]): 3 (3 = 41-60% retardation) | Uniformity Rating (U) (Water Oak; [24]): 3 | Retardation Rating (R) (Water Oak; [25]): 3 (3 = 41-60% retardation) | Uniformity Rating (U) (Water Oak; [25]): 3 | µg in solution ([1]; 0 hours): 200 µg | kd (ratio of chemical bound to wood:chemical in solution) ([1]; 0.5 hours): 0.7 | µg in solution ([1]; 0.5 hours): 116 µg | kd (ratio of chemical bound to wood:chemical in solution) ([1]; 1 hour): 1.4 | µg in solution ([1]; 1 hour): 84 µg | kd (ratio of chemical bound to wood:chemical in solution) ([1]; 2 hours): 1.5 | µg in solution ([1]; 2 hours): 81 µg | kd (ratio of chemical bound to wood:chemical in solution) ([1]; 4 hours): 1.7 | µg in solution ([1]; 4 hours): 75 µg | kd (ratio of chemical bound to wood:chemical in solution) ([1]; 8 hours): 1.8 | µg in solution ([1]; 8 hours): 72 µg | kd (ratio of chemical bound to wood:chemical in solution) ([1]; 24 hours): 1.7 | µg in solution ([1]; 24 hours): 74 µg | kd (ratio of chemical bound to wood:chemical in solution) ([1]; 48 hours): 1.8 | µg in solution ([1]; 48 hours): 76 µg
